Measured values as given in PubChem BioAssay AID256 (DTP/NCI, 2004).
Values joined by “and” are separate entries in the source; they are usually repeats but may differ in a detail not shown here. Equal entries are not always repeated. Inconclusive results and toxic doses are left out.

System: CD2F1 mice, L1210 leukemia ip, survival T/C
Experiment: NCI In Vivo Anticancer Drug Screen. Data for tumor model L1210 Leukemia (intraperitoneal) in CD2F1 (CDF1) mice
Settings: higher = longer survival
Outline: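 Ratio T/C, where T is the treated-group value and C the vehicle-dosed control value, from mice implanted with a transplantable tumor.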

[1] = endpoint: mean survival time, dose: 100.0 mg/kg/injection, schedule: Q01DX001 (ip), vehicle: saline with Tween-80
[2] = endpoint: mean survival time, dose: 25.0 mg/kg/injection, schedule: Q04DX003 (ip), vehicle: saline with Tween-80
[3] = endpoint: mean survival time, dose: 100.0 mg/kg/injection, schedule: Q04DX003 (ip), vehicle: saline with Tween-80
[4] = endpoint: mean survival time, dose: 200.0 mg/kg/injection, schedule: Q01DX001 (ip), vehicle: saline with Tween-80
[5] = endpoint: mean survival time, dose: 200.0 mg/kg/injection, schedule: Q04DX003 (ip), vehicle: saline with Tween-80
[6] = endpoint: mean survival time, dose: 400.0 mg/kg/injection, schedule: Q01DX001 (ip), vehicle: saline with Tween-80
[7] = endpoint: mean survival time, dose: 400.0 mg/kg/injection, schedule: Q04DX003 (ip), vehicle: saline with Tween-80
[8] = endpoint: mean survival time, dose: 100.0 mg/kg/injection, schedule: Q04DX002 (ip), vehicle: saline with Tween-80
[9] = endpoint: mean survival time, dose: 200.0 mg/kg/injection, schedule: Q04DX002 (ip), vehicle: saline with Tween-80
[10] = endpoint: mean survival time, dose: 6.25 mg/kg/injection, schedule: Q04DX003 (ip), vehicle: saline with Tween-80
[11] = endpoint: mean survival time, dose: 12.5 mg/kg/injection, schedule: Q04DX003 (ip), vehicle: saline with Tween-80
[12] = endpoint: mean survival time, dose: 50.0 mg/kg/injection, schedule: Q01DX009 (ip), vehicle: saline with Tween-80
[13] = endpoint: mean survival time, dose: 100.0 mg/kg/injection, schedule: Q01DX009 (ip), vehicle: saline with Tween-80
[14] = endpoint: mean survival time, dose: 200.0 mg/kg/injection, schedule: Q01DX009 (ip), vehicle: saline with Tween-80

In the case of `[Cl][Pt+2][Cl].[NH-]C(C(=O)O)c1ccccc1.[NH-]C(C(=O)O)c1ccccc1` (configuration not stated), the T/C (endpoint: median survival time, dose: 3.12 mg/kg/injection, schedule: Q04DX003 (ip), vehicle: saline) is reported as 103 % of control, the T/C (endpoint: median survival time, dose: 6.25 mg/kg/injection, schedule: Q04DX003 (ip), vehicle: saline) is reported as 103 % of control and the T/C (endpoint: median survival time, dose: 12.5 mg/kg/injection, schedule: Q04DX003 (ip), vehicle: saline) is reported as 100 % of control. The T/C (endpoint: median survival time, dose: 25.0 mg/kg/injection, schedule: Q04DX003 (ip), vehicle: saline) was 107 % of control, the T/C (endpoint: median survival time, dose: 50.0 mg/kg/injection, schedule: Q04DX003 (ip), vehicle: saline) was 101 % of control and the T/C (endpoint: median survival time, dose: 100.0 mg/kg/injection, schedule: Q04DX003 (ip), vehicle: saline) was 123 % of control.

In the case of `O=NN(CCCl)C(=O)NC1CCN(Cc2ccccc2)CC1`, the T/C (endpoint: mean survival time, dose: 12.5 mg/kg/injection, schedule: Q01DX001 (ip), vehicle: saline with Tween-80) is reported as 123 % of control, the T/C (endpoint: mean survival time, dose: 50.0 mg/kg/injection, schedule: Q01DX001 (ip), vehicle: saline with Tween-80) is reported as 271 % of control and the T/C [1] is reported as 379 % of control.

For `c1ccc(CCc2ccccc2)cc1`, the T/C [2] was 100 % of control, the T/C (endpoint: mean survival time, dose: 50.0 mg/kg/injection, schedule: Q04DX003 (ip), vehicle: saline with Tween-80) was 103 % of control and the T/C [1] was 100 % of control. For the same compound, the T/C [3] was 104 % of control and 105 % of control, the T/C [4] was 103 % of control and the T/C [5] was 101 % of control. For the same compound, the T/C [6] was 91 % of control and the T/C [7] was 107 % of control.

`COC(=O)C(CC(C)C)NC(=O)c1ccccc1` (configuration not stated) was tested, and the T/C [3] was 98 % of control, the T/C [5] was 97 % of control and the T/C [7] was 95 % of control.

With `Cc1cc(=O)n(C2CCCCC2)c(=NC2CCCCC2)o1` the T/C [8] was 100 % of control, the T/C [9] was 95 % of control and the T/C (endpoint: mean survival time, dose: 400.0 mg/kg/injection, schedule: Q04DX002 (ip), vehicle: saline with Tween-80) was 95 % of control.

For `CCC(O)C[As](=O)(O)c1ccccc1OC` (configuration not stated), the T/C [10] was 97 % of control, the T/C [11] was 97 % of control and the T/C [2] was 103 % of control.

In the case of `[C-]#[O+].[C-]#[O+].[C-]#[O+].[C-]#[O+].[C-]#[O+].[I][Re]`, the T/C (endpoint: mean survival time, dose: 50.0 mg/kg/injection, schedule: Q04DX002 (ip), vehicle: other) is reported as 123 % of control.

`O=c1[nH]cnc2c1nc(Br)n2C1OC(CO)C(O)C1O` (configuration not stated) was tested, and the T/C (endpoint: mean survival time, dose: 12.5 mg/kg/injection, schedule: Q01DX005 (ip), vehicle: Klucel (hydroxypropylcellulose) (HPC)) was 91 % of control, the T/C (endpoint: mean survival time, dose: 25.0 mg/kg/injection, schedule: Q01DX005 (ip), vehicle: Klucel (hydroxypropylcellulose) (HPC)) was 89 % of control and the T/C (endpoint: mean survival time, dose: 50.0 mg/kg/injection, schedule: Q01DX005 (ip), vehicle: Klucel (hydroxypropylcellulose) (HPC)) was 93 % of control. The T/C (endpoint: mean survival time, dose: 100.0 mg/kg/injection, schedule: Q01DX005 (ip), vehicle: Klucel (hydroxypropylcellulose) (HPC)) was 88 % of control and the T/C (endpoint: mean survival time, dose: 200.0 mg/kg/injection, schedule: Q01DX005 (ip), vehicle: Klucel (hydroxypropylcellulose) (HPC)) was 89 % of control.

`CN(C)c1ccc(/C=N/NC(=O)CNC(=O)Nc2cccc(C(F)(F)F)c2)cc1` was tested, and the T/C [12] was 96 % of control, the T/C [13] was 92 % of control and the T/C [14] was 88 % of control.

In the case of `CN(C)c1ccc(/C=N/NC(=O)c2ccccc2)cc1`, the T/C (endpoint: mean survival time, dose: 3.12 mg/kg/injection, schedule: Q04DX003 (ip), vehicle: saline with Tween-80) is reported as 90 % of control, the T/C [10] is reported as 96 % of control and the T/C [11] is reported as 94 % of control.

With `Cc1ccc(NC(=O)c2ccccc2Cl)cc1C` the T/C [3] was 97 % of control, the T/C [5] was 103 % of control and the T/C [7] was 93 % of control.

In the case of `CCC(=O)N(C)[C@@H](C)C(=O)O[C@H]1CC(=O)N(C)c2cc(cc(OC)c2Cl)C/C(C)=C/C=C[C@@H](OC)[C@@]2(O)C[C@H](OC(=O)N2)[C@@H](C)[C@@H]2O[C@@]12C`, the T/C (endpoint: mean survival time, dose: 1.3 micrograms/kg/injection, schedule: Q01DX009 (ip), vehicle: saline + alcohol) is reported as 110 % of control, the T/C (endpoint: mean survival time, dose: 2.5 micrograms/kg/injection, schedule: Q01DX009 (ip), vehicle: saline + alcohol) is reported as 119 % of control and the T/C (endpoint: mean survival time, dose: 2.5 micrograms/kg/injection, schedule: Q01DX009 (ip), vehicle: saline) is reported as 109 % of control. The T/C (endpoint: mean survival time, dose: 3.8 micrograms/kg/injection, schedule: Q01DX009 (ip), vehicle: saline + alcohol) was 120 % of control, the T/C (endpoint: mean survival time, dose: 5.0 micrograms/kg/injection, schedule: Q01DX009 (ip), vehicle: saline + alcohol) was 117 % of control and 111 % of control and the T/C (endpoint: mean survival time, dose: 5.0 micrograms/kg/injection, schedule: Q01DX009 (ip), vehicle: saline) was 111 % of control. For the same compound, the T/C (endpoint: mean survival time, dose: 7.5 micrograms/kg/injection, schedule: Q01DX009 (ip), vehicle: saline + alcohol) was 106 % of control, the T/C (endpoint: mean survival time, dose: 10.0 micrograms/kg/injection, schedule: Q01DX009 (ip), vehicle: saline + alcohol) was 115 % of control and the T/C (endpoint: mean survival time, dose: 10.0 micrograms/kg/injection, schedule: Q01DX009 (ip), vehicle: saline) was 111 % of control. The T/C (endpoint: mean survival time, dose: 15.0 micrograms/kg/injection, schedule: Q01DX009 (ip), vehicle: saline + alcohol) was 112 % of control, the T/C (endpoint: mean survival time, dose: 20.0 micrograms/kg/injection, schedule: Q01DX009 (ip), vehicle: saline) was 111 % of control and the T/C (endpoint: mean survival time, dose: 30.0 micrograms/kg/injection, schedule: Q01DX009 (ip), vehicle: saline + alcohol) was 122 % of control. The T/C (endpoint: mean survival time, dose: 30.0 micrograms/kg/injection, schedule: Q01DX009 (ip), vehicle: saline) was 117 % of control and the T/C (endpoint: mean survival time, dose: 60.0 micrograms/kg/injection, schedule: Q01DX009 (ip), vehicle: saline + alcohol) was 114 % of control.

`COc1cc(OC)c(NC(=O)OCC2CCCO2)cc1Cl` (configuration not stated) was tested, and the T/C [12] was 90 % of control, the T/C [13] was 97 % of control and the T/C [14] was 94 % of control.

`CC(=O)c1cc(F)ccc1O` was tested, and the T/C [13] was 92 % of control, the T/C [14] was 111 % of control and the T/C (endpoint: mean survival time, dose: 400.0 mg/kg/injection, schedule: Q01DX009 (ip), vehicle: saline with Tween-80) was 88 % of control.

With `CC[C@@]1(O)C[C@H](OC2CC(N(C)C)C(OC3CC(O)C(OC4CCC(=O)C(C)O4)C(C)O3)C(C)O2)c2c(cc3c(c2O)C(=O)c2c(O)ccc(O)c2C3=O)[C@H]1C(=O)OC` (some centres not stated) the T/C (endpoint: mean survival time, dose: 0.25 mg/kg/injection, schedule: Q01DX009 (ip), vehicle: water) was 101 % of control and 109 % of control, the T/C (endpoint: mean survival time, dose: 0.5 mg/kg/injection, schedule: Q01DX009 (ip), vehicle: water) was 113 % of control and 117 % of control and 119 % of control and the T/C (endpoint: mean survival time, dose: 1.0 mg/kg/injection, schedule: Q01DX009 (ip), vehicle: water) was 122 % of control. For the same compound, the T/C (endpoint: mean survival time, dose: 4.0 mg/kg/injection, schedule: Q01DX009 (ip), vehicle: water) was 89 % of control.

With `CCCCCCCCC(CCCCCCCC)CCCC1CCCC1` the T/C [1] was 95 % of control, the T/C [4] was 110 % of control and the T/C [6] was 103 % of control.

`CCOC(=O)Nc1cccnc1` was tested, and the T/C (endpoint: mean survival time, dose: 75.0 mg/kg/injection, schedule: Q01DX001 (ip), vehicle: saline with Tween-80) was 104 % of control, the T/C (endpoint: mean survival time, dose: 150.0 mg/kg/injection, schedule: Q01DX001 (ip), vehicle: saline with Tween-80) was 98 % of control and the T/C (endpoint: mean survival time, dose: 300.0 mg/kg/injection, schedule: Q01DX001 (ip), vehicle: saline with Tween-80) was 106 % of control.

For `CC(O)CN=C(N)C(N)=NCC(C)O` (configuration not stated), the T/C (endpoint: mean survival time, dose: 12.5 mg/kg/injection, schedule: Q04DX002 (ip), vehicle: saline with Tween-80) was 108 % of control, the T/C (endpoint: mean survival time, dose: 25.0 mg/kg/injection, schedule: Q04DX002 (ip), vehicle: saline with Tween-80) was 101 % of control and the T/C (endpoint: mean survival time, dose: 50.0 mg/kg/injection, schedule: Q04DX002 (ip), vehicle: saline with Tween-80) was 97 % of control.

In the case of `Nc1ccc(OCC(O)CN2CCN(c3ccccc3)CC2)cc1` (configuration not stated), the T/C [8] is reported as 94 % of control and the T/C [9] is reported as 107 % of control.

In the case of `[C-]#[O+].[C-]#[O+].[C-]#[O+].[C-]#[O+].[C-]#[O+].[C-]#[O+].[W]`, the T/C [3] is reported as 95 % of control, the T/C [5] is reported as 97 % of control and the T/C [7] is reported as 101 % of control.

`Cc1ccc(CNC2=C(Cl)C(=O)c3ccccc3C2=O)cc1` was tested, and the T/C [10] was 95 % of control, the T/C [11] was 98 % of control and the T/C [2] was 94 % of control and 97 % of control.
